Values joined by “and” are separate entries in the source; they are usually repeats but may differ in a detail not shown here. Equal entries are not always repeated. Results filed as inconclusive are left out. Active and inactive are the calls of the source.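 The calls were made as follows: active = valid dose-response fit whose half-maximal growth-inhibiting concentration is at or below a set limit above the top tested dose; inconclusive = flat fit with effect between 30 and 70%, or poor fit; inactive = half-maximal concentration above a set limit.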

One assay can be described thus: antibacterial activity against Clostridioides difficile – 10-point retest, dose response (AID 1259246). The settings on record: Clostridioides difficile clinical isolate growth, OD600, 24 h; at 60 µM (top of the series).
Regarding `C[C@@H]1CN([C@H](C)CO)C(=O)c2cc(C#CCc3ccccc3)cnc2O[C@H]1CN(C)CC1CCCC1`, the activity change, negative = inhibition is 19.2% (inactive). On the same count and under the same terms, for `CN(C)CC(=O)N1[C@H](C#N)[C@H](c2ccc(C#CC3CCCCC3)cc2)[C@H]1CO` the value was 6.71% (inactive); for `N#C[C@@H]1[C@@H](c2ccc(C#Cc3ccccc3F)cc2)[C@H](CO)N1C(=O)C1CCCCC1`, 9.57% (inactive). Still for that read-out and setting: as for `CO[C@@H]1CN(C)C(=O)c2ccc(NC(=O)c3ccc(-c4ccccc4)cc3)cc2OC[C@@H](C)NC[C@H]1C`, the figure is 25.2% (inactive); as for `COc1ccccc1CNC(=O)C[C@H]1C[C@H]2c3cc(NC(=O)NC4CCCC4)ccc3O[C@H]2[C@H](CO)O1`, -5.15% (inactive). For the compound `C[C@H](CO)N1C[C@H](C)[C@@H](CN(C)S(C)(=O)=O)OCCCC[C@H](C)Oc2ccc(NC(=O)Nc3cccc4ccccc34)cc2C1=O`, the activity change, negative = inhibition is 9.57% (inactive). Same read-out and setting: for `O=C(C[C@H]1C[C@@H]2c3cc(NC(=O)C4CCC4)ccc3O[C@@H]2[C@@H](CO)O1)NCCc1ccccc1` the value was 0.211% (inactive).

As to `CC(C)CC#Cc1ccc2c(c1)O[C@@H](CN(C)Cc1ccc(C(=O)O)cc1)[C@H](C)CN([C@@H](C)CO)S2(=O)=O`, the activity change, negative = inhibition was 2.34% (inactive).

Still in this assay, the particulars now being: Clostridioides difficile clinical isolate growth, OD600, 24 h; at 68 µM (top of the series).
With `O=C(C[C@H]1C[C@@H]2c3cc(NC(=O)C4CCC4)ccc3O[C@@H]2[C@@H](CO)O1)NCCN1CCCCC1`, the activity change, negative = inhibition was -0.905% (inactive).

The same assay, now with this note: Clostridioides difficile clinical isolate growth, OD600, 24 h; at 120 µM (top of the series).
In the case of `CC(C)CC#Cc1ccc2c(c1)O[C@@H](CN(C)Cc1ccccc1)[C@H](C)CN([C@@H](C)CO)S2(=O)=O`, the activity change, negative = inhibition is 32.1% (inactive). The same measure, in the same setting: as for `C[C@@H]1CN([C@H](C)CO)C(=O)Cc2cc(NC(=O)C3CC3)ccc2O[C@@H]1CN(C)Cc1ccc(Cl)c(Cl)c1`, the figure is 27.9% (inactive); as for `CO[C@@H]1CN(C)C(=O)c2ccc(NC(=O)c3nc4ccccc4s3)cc2OC[C@@H](C)N(Cc2ccncc2)C[C@H]1C`, 28.6% (inactive).

For `C[C@H]1CN([C@@H](C)CO)C(=O)Cc2cc(NC(=O)CCCN(C)C)ccc2O[C@H]1CN(C)Cc1ccc(-c2ccccc2)cc1`, the activity change, negative = inhibition was 20.8% (inactive). In the case of `O=C(C[C@H]1C[C@@H]2c3cc(NC(=O)C4CCC4)ccc3O[C@@H]2[C@@H](CO)O1)NCc1ccc(Cl)cc1`, the activity change, negative = inhibition is -11.8% (inactive).

Turning to `C[C@H](CO)N1C[C@H](C)[C@H](CN(C)Cc2ccc(-c3ccccc3)cc2)Oc2c(NC(=O)Nc3ccc(C(F)(F)F)cc3)cccc2C1=O`, the activity change, negative = inhibition was 16.3% (inactive). On the same count and under the same terms, for `C[C@@H]1CN([C@H](C)CO)C(=O)Cc2cc(NC(=O)CCCN(C)C)ccc2O[C@H]1CN(C)Cc1ccc(Oc2ccccc2)cc1` the value was 17.1% (inactive); for `C[C@@H]1CN([C@@H](C)CO)S(=O)(=O)c2ccc(C#CC3CCCC3)cc2O[C@H]1CN(C)Cc1cccnc1`, 23.5% (inactive).

Regarding `Cc1ccc(-c2ccc3c(c2)O[C@@H](CN(C)Cc2ccncc2)[C@H](C)CN([C@@H](C)CO)S3(=O)=O)cc1`, the activity change, negative = inhibition was 21.6% (inactive). The same measure, in the same setting: as for `O=C(C[C@H]1C[C@H]2c3cc(NS(=O)(=O)c4ccc(F)cc4)ccc3O[C@H]2[C@H](CO)O1)NCc1ccc(-c2ccccc2)cc1`, the figure is 17.8% (inactive); as for `CC(C)CC#Cc1ccc2c(c1)O[C@@H](CN(C)Cc1ccc3c(c1)OCO3)[C@H](C)CN([C@@H](C)CO)S2(=O)=O`, 11% (inactive); as for `CO[C@H]1CN(C)C(=O)c2ccc(NC(=O)c3ccc(-c4ccccc4)cc3)cc2OC[C@H](C)NC[C@@H]1C`, 5.28% (inactive). Regarding `COc1cccc(NC(=O)N(C)C[C@@H]2Oc3cc(/C=C/c4ccccc4)ccc3S(=O)(=O)N([C@@H](C)CO)C[C@H]2C)c1`, the activity change, negative = inhibition was 19.6% (inactive).

For the compound `C[C@H]1CN([C@@H](C)CO)C(=O)Cc2cc(NC(=O)CCCN(C)C)ccc2O[C@@H]1CN(C)Cc1ccc(Oc2ccccc2)cc1`, the activity change, negative = inhibition is 32.2% (inactive). Same read-out and setting: as for `CC(C)CC#Cc1ccc2c(c1)O[C@H](CN(C)Cc1ccc(F)cc1)[C@H](C)CN([C@H](C)CO)S2(=O)=O`, the figure is 28% (inactive) and 85.7% (inactive). Turning to `C[C@@H]1CN([C@@H](C)CO)C(=O)Cc2cc(NC(=O)C3CC3)ccc2O[C@@H]1CN(C)Cc1ccc(Oc2ccccc2)cc1`, the activity change, negative = inhibition is 21.3% (inactive).

In the case of `CO[C@H]1CN(C)C(=O)c2cc(NC(=O)c3ccc(Oc4ccccc4)cc3)ccc2OC[C@H](C)NC[C@H]1C`, the activity change, negative = inhibition is 31.6% (inactive).

Take `O=C(N[C@H]1CC[C@H](CCNS(=O)(=O)c2ccc(Cl)cc2)O[C@H]1CO)c1ccccn1`: the activity change, negative = inhibition was -10.3% (inactive). Still for that read-out and setting: as for `C[C@@H]1CN([C@@H](C)CO)C(=O)Cc2cc(NC(=O)C3CC3)ccc2O[C@@H]1CN(C)Cc1ccc(C(F)(F)F)cc1`, the figure is 21.2% (inactive); as for `N#C[C@H]1[C@H](c2ccc(C#Cc3ccccc3F)cc2)[C@@H](CO)N1C(=O)C1CCCCC1`, 24.9% (inactive). As for `CC(C)CC#Cc1ccc2c(c1)O[C@H](CN(C)CC1CCOCC1)[C@H](C)CN([C@@H](C)CO)S2(=O)=O`, the activity change, negative = inhibition is 15.6% (inactive). Regarding `Cc1ccc(S(=O)(=O)N[C@H]2CC[C@@H](CCNS(=O)(=O)Cc3ccccc3)O[C@@H]2CO)cc1`, the activity change, negative = inhibition is -4.91% (inactive).

Turning to `C[C@@H]1CN([C@H](C)CO)C(=O)Cc2cc(NC(=O)C3CC3)ccc2O[C@H]1CN(C)Cc1ccc(Oc2ccccc2)cc1`, the activity change, negative = inhibition was 20.2% (inactive). Still for that read-out and setting: as for `C[C@H](CO)N1C[C@H](C)[C@H](CN(C)Cc2ccc(-c3ccccc3)cc2)Oc2c(NC(=O)Nc3ccc4c(c3)OCO4)cccc2C1=O`, the figure is 24.3% (inactive).

For `CO[C@H]1CN(C)C(=O)c2cc(NC(=O)c3nc4ccccc4s3)ccc2OC[C@@H](C)N(Cc2ccncc2)C[C@H]1C`, the activity change, negative = inhibition is 5.99% (inactive). On to `O=C(C[C@@H]1C[C@@H]2c3cc(NC(=O)Nc4ccc(F)cc4)ccc3O[C@@H]2[C@@H](CO)O1)NC1CCCCC1`, for which the activity change, negative = inhibition is -8.47% (inactive). Turning to `Cc1ccc(S(=O)(=O)N[C@H]2CC[C@H](CCNC(=O)Cc3ccccn3)O[C@H]2CO)cc1`, the activity change, negative = inhibition was -0.997% (inactive).

In the case of `C[C@H]1CN([C@@H](C)CO)C(=O)c2cccc(NC(=O)Nc3ccc(C(F)(F)F)cc3)c2O[C@@H]1CN(C)Cc1ccc2c(c1)OCO2`, the activity change, negative = inhibition is 34.1% (inactive). On the same count and under the same terms, for `CNC[C@H]1Oc2ccc(N)cc2CC(=O)N([C@H](C)CO)C[C@H]1C` the value was -8.02% (inactive); for `CC(C)CC#Cc1ccc2c(c1)O[C@H](CN(C)Cc1ccc(F)cc1)[C@H](C)CN([C@@H](C)CO)S2(=O)=O`, 34.5% (inactive); for `O=C(C[C@@H]1C[C@@H]2c3cc(NC(=O)C4CCC4)ccc3O[C@@H]2[C@H](CO)O1)NCc1ccc(Cl)cc1`, -2.36% (inactive).

Take `C[C@@H]1CN([C@H](C)CO)C(=O)c2cccc(NC(=O)Nc3ccc(C(F)(F)F)cc3)c2O[C@@H]1CN(C)C(=O)NC1CCCCC1`: the activity change, negative = inhibition was 7.85% (inactive). Still for that read-out and setting: for `COc1ccc(CN2C[C@@H](C)[C@H](OC)CN(C)C(=O)c3ccc(NC(=O)c4nc5ccccc5s4)cc3OC[C@H]2C)cc1` the value was 22.7% (inactive); for `CO[C@@H]1CN(C)C(=O)c2ccc(NC(=O)c3nc4ccccc4s3)cc2OC[C@H](C)N(Cc2ccncc2)C[C@H]1C`, 7.34% (inactive); for `CNC[C@@H]1Oc2cc(Br)ccc2S(=O)(=O)N([C@H](C)CO)C[C@H]1C`, 2.27% (inactive). The same measure, in the same setting: for `COc1ccc(NC(=O)Nc2cccc3c2O[C@H](CN(C)C(=O)NC2CCCCC2)[C@@H](C)CN([C@H](C)CO)C3=O)cc1` the value was -0.118% (inactive); for `O=C(C[C@H]1C[C@@H]2c3cc(NC(=O)NC4CCCC4)ccc3O[C@@H]2[C@@H](CO)O1)NCc1ccc(Cl)cc1`, 8.51% (inactive). In the case of `C[C@@H]1CN([C@H](C)CO)C(=O)c2cc(NC(=O)Nc3ccc4c(c3)OCO4)ccc2O[C@@H](C)CCCCO[C@H]1CN(C)S(=O)(=O)c1ccc(F)cc1`, the activity change, negative = inhibition was 13.1% (inactive). With `O=C(C[C@H]1C[C@H]2c3cc(NC(=O)Nc4ccc(F)cc4)ccc3O[C@H]2[C@H](CO)O1)NC1CCCCC1`, the activity change, negative = inhibition was 2.71% (inactive). Take `C[C@H]1CN([C@@H](C)CO)S(=O)(=O)c2ccc(Br)cc2O[C@@H]1CN(C)Cc1cccnc1`: the activity change, negative = inhibition was -0.003% (inactive).

Staying with this assay, now noted: Clostridioides difficile clinical isolate growth, OD600, 24 h; at 135 µM (top of the series).
As for `Cc1ccc(S(=O)(=O)N[C@H]2CC[C@H](CCNS(=O)(=O)Cc3ccccc3)O[C@@H]2CO)cc1`, the activity change, negative = inhibition is -4.21% (inactive).

Consider `C[C@H](CO)N1C[C@H](C)[C@H](CN(C)Cc2ccc(-c3ccccc3)cc2)Oc2ccc(NC(=O)C3CC3)cc2CC1=O`, for which the activity change, negative = inhibition was 13.1% (inactive). Still for that read-out and setting: as for `CNC[C@H]1Oc2c(NC(=O)Nc3ccc(F)cc3)cccc2C(=O)N([C@H](C)CO)C[C@@H]1C`, the figure is 0.222% (inactive); as for `O=C(Nc1ccc(-c2ccccc2)cc1)[C@H]1[C@H](CO)[C@H]2Cn3c(cccc3=O)[C@H]2N1CC1CCCCC1`, 32.6% (inactive); as for `COc1ccc(-c2ccc([C@H]3[C@H](C#N)N(C(=O)C4CC4)[C@H]3CO)cc2)cc1`, -0.086% (inactive). For `C[C@@H]1CN([C@H](C)CO)C(=O)c2cccc(NC(=O)Nc3ccc4c(c3)OCO4)c2O[C@@H]1CN(C)Cc1ccc(-c2ccccc2)cc1`, the activity change, negative = inhibition was 12.1% (inactive).

In the case of `CO[C@H]1CN(C)C(=O)c2cc(NC(=O)c3nc4ccccc4s3)ccc2OC[C@H](C)NC[C@H]1C`, the activity change, negative = inhibition was -0.247% (inactive).

Values taken from PubChem BioAssay AID1259246 (Broad Institute, 2017).
